Experimental data: patent US20250332178A1, “METHODS OF TREATING MYCOBACTERIAL INFECTIONS USING TETRACYCLINE COMPOUNDS” (priority 2018, published 2025)
≈ marks a conversion by molar mass, not a printed value.

Key:
M. smegmatis group = test: MIC (CLSI broth dilution), RGM isolates; format: cell-based; settings: Mycolicibacterium smegmatis
[1] = test system: M. abscessus subsp. abscessus CIP 104536; test: MIC according to CLSI guidelines; settings: Mycobacteroides abscessus, CIP104536, read-out: Minimal Inhibitory Concentration (MIC)
Protocol: Vials with M. abscessus suspensions were stored at −80° C. Cultures on solid medium were grown on Mueller Hinton II agar (BD), supplemented with 10% OADC and 0.5% glycerol for 10 days at 37° C. with 5% CO2.

M. abscessus complex = test: MIC (CLSI broth dilution), RGM isolates; format: cell-based; settings: Mycobacteroides abscessus
Mycobacterium chelonae = test: MIC by broth microdilution in CAMHB, clinical isolates; format: cell-based
Mycobacterium abscessus = test: as above; format: cell-based; settings: Mycobacteroides abscessus
Mycobacterium fortuitum = test: as above; format: cell-based; settings: Mycolicibacterium fortuitum
M. mucogenium group = test: MIC (CLSI broth dilution), RGM isolates; format: cell-based
[2] = test system: rapid-growing mycobacteria (RGM) isolates; test: MIC (CLSI broth dilution), all RGM isolates; format: cell-based, nontuberculous mycobacteria
M. immunogenum group = test: MIC (CLSI broth dilution), RGM isolates; format: cell-based; settings: M. immunogenum
M. chelonae = test: MIC (CLSI broth dilution), RGM isolates; format: cell-based; settings: Mycobacteroides chelonae
M. fortuitum group = test: MIC (CLSI broth dilution), RGM isolates; format: cell-based; settings: Mycolicibacterium fortuitum

Question: Which results are given for `CN(C)c1cc(NC(=O)CNC(C)(C)C)c(O)c2c1C[C@H]1C[C@H]3[C@H](N(C)C)C(O)=C(C(N)=O)C(=O)[C@@]3(O)C(O)=C1C2=O` [Tigecycline, tigecycline]?
Answer: MIC (M. smegmatis group; isolate 49, M. smegmatis group, M. goodii): ≤ 0.015 µg/mL; MIC (M. smegmatis group; isolate 50, M. smegmatis group, M. wolinskyi): 0.03 µg/mL (≈ 0.0512 µM); MIC [1]: 4 µg/mL (≈ 6.83 µM); MIC (M. abscessus complex; isolate 1, M. abscessus complex, erm gene type MAB30): 0.12 µg/mL (≈ 0.205 µM); MIC (M. abscessus complex; isolate 2, M. abscessus complex, erm gene type MAB30): 0.12 µg/mL (≈ 0.205 µM); MIC (M. abscessus complex; isolate 3, M. abscessus complex, erm gene type MAB30): 0.25 µg/mL (≈ 0.427 µM); MIC (M. abscessus complex; isolate 4, M. abscessus complex, erm gene type massiliense): 0.25 µg/mL (≈ 0.427 µM); MIC (M. abscessus complex; isolate 5, M. abscessus complex, erm gene type massiliense/subsp. abs hybrid): 0.25 µg/mL (≈ 0.427 µM); MIC (M. abscessus complex; isolate 6, M. abscessus complex, erm gene type Type 1 abscessus): 0.12 µg/mL (≈ 0.205 µM); MIC (M. abscessus complex; isolate 7, M. abscessus complex, erm gene type Type 1 abscessus): 0.25 µg/mL (≈ 0.427 µM); MIC (M. abscessus complex; isolate 8, M. abscessus complex, erm gene type Type 1 abscessus): 0.12 µg/mL (≈ 0.205 µM); MIC (M. abscessus complex; isolate 9, M. abscessus complex, erm gene type Type 1 abscessus): 0.25 µg/mL (≈ 0.427 µM); MIC (M. abscessus complex; isolate 10, M. abscessus complex, erm gene type Type 1 abscessus): 0.12 µg/mL (≈ 0.205 µM); MIC (M. abscessus complex; isolate 11, M. abscessus complex, erm gene type Type 6 abscessus): 0.06 µg/mL (≈ 0.102 µM); MIC (M. abscessus complex; isolate 12, M. abscessus complex, erm gene type Type 6 abscessus): 0.12 µg/mL (≈ 0.205 µM); MIC (M. abscessus complex; isolate 13, M. abscessus complex, erm gene type Type 6 abscessus): 0.25 µg/mL (≈ 0.427 µM); MIC (M. abscessus complex; isolate 14, M. abscessus complex, erm gene type Type 6 abscessus): 0.12 µg/mL (≈ 0.205 µM); MIC (M. abscessus complex; isolate 15, M. abscessus complex, erm gene type Type 7 abscessus): 0.06 µg/mL (≈ 0.102 µM); MIC (M. abscessus complex; isolate 16, M. abscessus complex, erm gene type Type 7 abscessus): 0.12 µg/mL (≈ 0.205 µM); MIC (M. abscessus complex; isolate 17, M. abscessus complex, erm gene type Type 8 abscessus): 0.12 µg/mL (≈ 0.205 µM); MIC50 (Mycobacterium chelonae): 0.06 µg/mL (≈ 0.102 µM); MIC50 (Mycobacterium abscessus): 1 µg/mL (≈ 1.71 µM); MIC90 (Mycobacterium abscessus): 2 µg/mL (≈ 3.41 µM); MIC (Mycobacterium abscessus; isolate No. 1, BB2): 2 µg/mL (≈ 3.41 µM); MIC (Mycobacterium abscessus; isolate No. 2, BB4): 2 µg/mL (≈ 3.41 µM); MIC (Mycobacterium abscessus; isolate No. 3, 5922): 0.25 µg/mL (≈ 0.427 µM); MIC (Mycobacterium abscessus; isolate No. 4, BB3): 0.06 µg/mL (≈ 0.102 µM); MIC (Mycobacterium abscessus; isolate No. 5, BB6): 0.125 µg/mL (≈ 0.213 µM); MIC (Mycobacterium abscessus; isolate No. 6, 5908): 2 µg/mL (≈ 3.41 µM); MIC (Mycobacterium abscessus; isolate No. 7, BB7): 2 µg/mL (≈ 3.41 µM); MIC (Mycobacterium abscessus; isolate No. 8, 6031): 1 µg/mL (≈ 1.71 µM); MIC (Mycobacterium abscessus; isolate No. 9, 5785): 0.5 µg/mL (≈ 0.854 µM); MIC (Mycobacterium abscessus; isolate No. 11, 6111): 0.5 µg/mL (≈ 0.854 µM); MIC (Mycobacterium abscessus; isolate No. 12, 6005): 0.5 µg/mL (≈ 0.854 µM); MIC (Mycobacterium abscessus; isolate No. 16, BB5): 1 µg/mL (≈ 1.71 µM); MIC (Mycobacterium abscessus; isolate No. 19, 5960): 8 µg/mL (≈ 13.7 µM); MIC (Mycobacterium abscessus; isolate No. 23, 6025): 1 µg/mL (≈ 1.71 µM); MIC50 (Mycobacterium fortuitum): 0.25 µg/mL (≈ 0.427 µM); MIC90 (Mycobacterium fortuitum): 0.25 µg/mL (≈ 0.427 µM); MIC (Mycobacterium fortuitum; isolate No. 1, 3349): 0.25 µg/mL (≈ 0.427 µM); MIC (Mycobacterium fortuitum; isolate No. 2, 3499): 0.015 µg/mL (≈ 0.0256 µM); MIC (Mycobacterium fortuitum; isolate No. 3, 2797): 0.06 µg/mL (≈ 0.102 µM); MIC (Mycobacterium fortuitum; isolate No. 4, 32): 0.25 µg/mL (≈ 0.427 µM); MIC (Mycobacterium fortuitum; isolate No. 5, 33): 0.125 µg/mL (≈ 0.213 µM); MIC (Mycobacterium fortuitum; isolate No. 6, 3489): 0.015 µg/mL (≈ 0.0256 µM); MIC (Mycobacterium fortuitum; isolate No. 7, 3491): 0.015 µg/mL (≈ 0.0256 µM); MIC (Mycobacterium fortuitum; isolate No. 8, 54): 0.03 µg/mL (≈ 0.0512 µM); MIC (Mycobacterium fortuitum; isolate No. 9, 38): 0.06 µg/mL (≈ 0.102 µM); MIC (Mycobacterium fortuitum; isolate No. 10, 36): 0.03 µg/mL (≈ 0.0512 µM); MIC (Mycobacterium fortuitum; isolate No. 11, 3480): 0.25 µg/mL (≈ 0.427 µM); MIC (Mycobacterium fortuitum; isolate No. 12, 3126): 0.25 µg/mL (≈ 0.427 µM); MIC (Mycobacterium fortuitum; isolate No. 13, 3579): 0.25 µg/mL (≈ 0.427 µM); MIC (Mycobacterium fortuitum; isolate No. 14, 7484): 0.5 µg/mL (≈ 0.854 µM); MIC (Mycobacterium fortuitum; isolate No. 15, 3488): 0.25 µg/mL (≈ 0.427 µM); MIC (Mycobacterium fortuitum; isolate No. 16, 3276): 0.25 µg/mL (≈ 0.427 µM); MIC (Mycobacterium fortuitum; isolate No. 17, 3442): 1 µg/mL (≈ 1.71 µM); MIC (Mycobacterium fortuitum; isolate No. 18, 3316): 0.25 µg/mL (≈ 0.427 µM); MIC (Mycobacterium fortuitum; isolate No. 19, 3490): 0.25 µg/mL (≈ 0.427 µM); MIC (Mycobacterium fortuitum; isolate No. 20, 2491): 0.5 µg/mL (≈ 0.854 µM); MIC (M. mucogenium group; isolate 39, M. mucogenicum group, M. mucogenicum): 0.12 µg/mL (≈ 0.205 µM); MIC (M. mucogenium group; isolate 40, M. mucogenicum group, M. mucogenicum): 0.06 µg/mL (≈ 0.102 µM); MIC (M. mucogenium group; isolate 41, M. mucogenicum group, M. mucogenicum): 0.06 µg/mL (≈ 0.102 µM); MIC (M. mucogenium group; isolate 42, M. mucogenicum group, M. mucogenicum): 0.12 µg/mL (≈ 0.205 µM); MIC (M. mucogenium group; isolate 43, M. mucogenicum group, M. phocaicum): 0.12 µg/mL (≈ 0.205 µM); MIC (M. mucogenium group; isolate 44, M. mucogenicum group, M. phocaicum): 0.06 µg/mL (≈ 0.102 µM); MIC (M. mucogenium group; isolate 45, M. mucogenicum group, M. phocaicum): 0.25 µg/mL (≈ 0.427 µM); MIC (M. mucogenium group; isolate 46, M. mucogenicum group, M. phocaicum): 0.06 µg/mL (≈ 0.102 µM); MIC (M. mucogenium group; isolate 47, M. mucogenicum group, M. phocaicum): 0.25 µg/mL (≈ 0.427 µM); MIC (M. mucogenium group; isolate 48, M. mucogenicum group, M. phocaicum): 0.03 µg/mL (≈ 0.0512 µM); MIC50 [2]: 0.125 µg/mL (≈ 0.213 µM); MIC90 [2]: 0.25 µg/mL (≈ 0.427 µM); MIC (M. immunogenum group; isolate 35, M. immunogenum group): 0.5 µg/mL (≈ 0.854 µM); MIC (M. immunogenum group; isolate 36, M. immunogenum group): 0.12 µg/mL (≈ 0.205 µM); MIC (M. immunogenum group; isolate 37, M. immunogenum group): 0.5 µg/mL (≈ 0.854 µM); MIC (M. immunogenum group; isolate 38, M. immunogenum group): 0.5 µg/mL (≈ 0.854 µM); MIC (M. chelonae; isolate 18, M. chelonae): 0.12 µg/mL (≈ 0.205 µM); MIC (M. chelonae; isolate 19, M. chelonae): 0.25 µg/mL (≈ 0.427 µM); MIC (M. chelonae; isolate 20, M. chelonae): 0.12 µg/mL (≈ 0.205 µM); MIC (M. chelonae; isolate 21, M. chelonae): 0.5 µg/mL (≈ 0.854 µM); MIC (M. chelonae; isolate 22, M. chelonae): 0.25 µg/mL (≈ 0.427 µM); MIC (M. fortuitum group; isolate 23, M. fortuitum group, M. fortuitum): 0.03 µg/mL (≈ 0.0512 µM); MIC (M. fortuitum group; isolate 24, M. fortuitum group, M. fortuitum): 0.12 µg/mL (≈ 0.205 µM); MIC (M. fortuitum group; isolate 25, M. fortuitum group, M. fortuitum): ≤ 0.015 µg/mL; MIC (M. fortuitum group; isolate 26, M. fortuitum group, M. porcinum): ≤ 0.015 µg/mL; MIC (M. fortuitum group; isolate 27, M. fortuitum group, M. porcinum): 0.03 µg/mL (≈ 0.0512 µM); MIC (M. fortuitum group; isolate 28, M. fortuitum group, M. porcinum/M. boenickei): 0.03 µg/mL (≈ 0.0512 µM); MIC (M. fortuitum group; isolate 29, M. fortuitum group, M. porcinum/M. boenickei): 0.03 µg/mL (≈ 0.0512 µM); MIC (M. fortuitum group; isolate 30, M. fortuitum group, M. porcinum/M. boenickei): 0.03 µg/mL (≈ 0.0512 µM); MIC (M. fortuitum group; isolate 31, M. fortuitum group, M. senegalense): 0.06 µg/mL (≈ 0.102 µM); MIC (M. fortuitum group; isolate 32, M. fortuitum group, M. senegalense): 0.03 µg/mL (≈ 0.0512 µM); MIC (M. fortuitum group; isolate 33, M. fortuitum group, M. senegalense): 0.03 µg/mL (≈ 0.0512 µM); MIC (M. fortuitum group; isolate 34, M. fortuitum group, M. senegalense): 0.03 µg/mL (≈ 0.0512 µM)
